In ChEMBL document CHEMBL1129086, “Design of a novel cognitive enhancer (8S, 10aS)-8-carbamoyl-1,2,3,6,7,8,9,10a-octahydro-5H,10H-pyrrolo[1,2-a][1,4]diazocin-5,10-dione” (1996):
The source made the active and inactive calls. No cut-off for these calls is given here. Where a SMILES comes first, the peptide text is derived from it. Bridges are numbered along the chain shown (N, C = ends). [ ]: non-standard residue; d: D form. pGlu = O=C1CC[C@@H](C(=O)O)N1

Organism: Mus musculus
Assay: Compound was tested for motor impairment in mice by neuropharmacological test; No effect
Format: functional, organism-based
Conditions: not given

| SMILES | Activity |
| --- | --- |
| NC(=O)[C@@H]1CCC(=O)N2CCC[C@H]2C(=O)N1 (Pro-Glu-NH2; lactam N-2) | inactive |
| NC(=O)CC[C@H](NC(=O)[C@@H]1CCC(=O)N1)C(=O)N1CCC[C@H]1C(N)=O ([pGlu]-Gln-Pro-NH2) | inactive |
| CC(C)(C)OC(=O)N[C@@H](CCC(=O)O)C(=O)O | inactive |
| CC(C)(C)OC(=O)N[C@@H](CCC(=O)N1CCC[C@H]1C(=O)O)C(=O)OCC(=O)NC(c1ccccc1)c1ccccc1 | inactive |
| NC(=O)[C@@H]1CCCN1C(=O)[C@H](Cc1c[nH]cn1)NC(=O)[C@@H]1CCC(=O)N1 | inactive |
| O=C(COC(=O)[C@@H]1CCC(=O)N2CCC[C@H]2C(=O)N1)NC(c1ccccc1)c1ccccc1 | inactive |
| CC(C)(C)OC(=O)N[C@@H](CCC(=O)O)C(=O)OCC(=O)NC(c1ccccc1)c1ccccc1 | inactive |

Organism: Mus musculus
Assay: Compound was tested for myorelaxant action in mice by neuropharmacological test; No effect
Format: functional, organism-based
Conditions: not given

| SMILES | Activity |
| --- | --- |
| NC(=O)[C@@H]1CCC(=O)N2CCC[C@H]2C(=O)N1 (Pro-Glu-NH2; lactam N-2) | inactive |
| NC(=O)CC[C@H](NC(=O)[C@@H]1CCC(=O)N1)C(=O)N1CCC[C@H]1C(N)=O ([pGlu]-Gln-Pro-NH2) | inactive |
| CC(C)(C)OC(=O)N[C@@H](CCC(=O)O)C(=O)O | inactive |
| CC(C)(C)OC(=O)N[C@@H](CCC(=O)N1CCC[C@H]1C(=O)O)C(=O)OCC(=O)NC(c1ccccc1)c1ccccc1 | inactive |
| NC(=O)[C@@H]1CCCN1C(=O)[C@H](Cc1c[nH]cn1)NC(=O)[C@@H]1CCC(=O)N1 | inactive |
| O=C(COC(=O)[C@@H]1CCC(=O)N2CCC[C@H]2C(=O)N1)NC(c1ccccc1)c1ccccc1 | inactive |
| CC(C)(C)OC(=O)N[C@@H](CCC(=O)O)C(=O)OCC(=O)NC(c1ccccc1)c1ccccc1 | inactive |

Organism: Mus musculus
Assay: Compound was tested for psychomotor activation on CNS in mice by neuropharmacological test; No effect
Format: functional, organism-based
Conditions: Central nervous system

| SMILES | Activity |
| --- | --- |
| NC(=O)[C@@H]1CCC(=O)N2CCC[C@H]2C(=O)N1 (Pro-Glu-NH2; lactam N-2) | inactive |
| NC(=O)CC[C@H](NC(=O)[C@@H]1CCC(=O)N1)C(=O)N1CCC[C@H]1C(N)=O ([pGlu]-Gln-Pro-NH2) | inactive |
| CC(C)(C)OC(=O)N[C@@H](CCC(=O)O)C(=O)O | inactive |
| CC(C)(C)OC(=O)N[C@@H](CCC(=O)N1CCC[C@H]1C(=O)O)C(=O)OCC(=O)NC(c1ccccc1)c1ccccc1 | inactive |
| NC(=O)[C@@H]1CCCN1C(=O)[C@H](Cc1c[nH]cn1)NC(=O)[C@@H]1CCC(=O)N1 | inactive |
| O=C(COC(=O)[C@@H]1CCC(=O)N2CCC[C@H]2C(=O)N1)NC(c1ccccc1)c1ccccc1 | inactive |
| CC(C)(C)OC(=O)N[C@@H](CCC(=O)O)C(=O)OCC(=O)NC(c1ccccc1)c1ccccc1 | inactive |

Organism: Mus musculus
Assay: Compound was tested for sedative action in mice by neuropharmacological test; No effect
Format: functional, organism-based
Conditions: not given

| SMILES | Activity |
| --- | --- |
| NC(=O)[C@@H]1CCC(=O)N2CCC[C@H]2C(=O)N1 (Pro-Glu-NH2; lactam N-2) | inactive |
| NC(=O)CC[C@H](NC(=O)[C@@H]1CCC(=O)N1)C(=O)N1CCC[C@H]1C(N)=O ([pGlu]-Gln-Pro-NH2) | inactive |
| CC(C)(C)OC(=O)N[C@@H](CCC(=O)O)C(=O)O | inactive |
| CC(C)(C)OC(=O)N[C@@H](CCC(=O)N1CCC[C@H]1C(=O)O)C(=O)OCC(=O)NC(c1ccccc1)c1ccccc1 | inactive |
| NC(=O)[C@@H]1CCCN1C(=O)[C@H](Cc1c[nH]cn1)NC(=O)[C@@H]1CCC(=O)N1 | inactive |
| O=C(COC(=O)[C@@H]1CCC(=O)N2CCC[C@H]2C(=O)N1)NC(c1ccccc1)c1ccccc1 | inactive |
| CC(C)(C)OC(=O)N[C@@H](CCC(=O)O)C(=O)OCC(=O)NC(c1ccccc1)c1ccccc1 | inactive |

Each compound was assayed on Rattus norvegicus (assay: Antiamnesic potency was discovered in the passive avoidance test in rats at a dose 0.1 mg/kg (p<0.05); Amnesia reversed). Conditions: not given.
Format: functional, organism-based
Parameters: dose 0.1 mg/kg

| SMILES | Activity |
| --- | --- |
| NC(=O)[C@@H]1CCC(=O)N2CCC[C@H]2C(=O)N1 (Pro-Glu-NH2; lactam N-2) | Amnesia reversed |

These compounds were tested on Rattus norvegicus (assay: Antiamnesic potency was discovered in the passive avoidance test in rats at a dose 1.0 mg/kg (p<0.05); Amnesia reversed). Conditions: not given.
Format: functional, organism-based
Parameters: dose 1 mg/kg

| SMILES | Activity |
| --- | --- |
| NC(=O)[C@@H]1CCC(=O)N2CCC[C@H]2C(=O)N1 (Pro-Glu-NH2; lactam N-2) | Amnesia reversed |

These compounds were tested on Rattus norvegicus (assay: Compound was tested for amnesia response against scopolamine induced rats by passive avoidance test at a dose 1 mg/kg). Conditions: not given.
Format: functional

| SMILES | Response |
| --- | --- |
| NC(=O)[C@@H]1CCC(=O)N2CCC[C@H]2C(=O)N1 (Pro-Glu-NH2; lactam N-2) | 83% |
